Test results: ChEMBL document CHEMBL2016462, “Inhibitors of Ketohexokinase: Discovery of Pyrimidinopyrimidines with Specific Substitution that Complements the ATP-Binding Site” (ACS Med Chem Lett, 2011); call rule not given here
Converted amounts (≈) assume the structure as drawn. Values belong to the compound of their own block, whether it stands above or below them.

What was measured:
Ketohexokinase [1] = biological target: T1, Ketohexokinase (Homo sapiens, UniProt P50053); experiment: Inhibition of ketokinase isoform C in human HepG2 cells assessed as levels of fructose-1-phosphate preincubated for 30 mins followed by substrate addition measured after 3 hrs by LC-MS analysis; format: cell-based
T1 sequence (P50053 whole entry): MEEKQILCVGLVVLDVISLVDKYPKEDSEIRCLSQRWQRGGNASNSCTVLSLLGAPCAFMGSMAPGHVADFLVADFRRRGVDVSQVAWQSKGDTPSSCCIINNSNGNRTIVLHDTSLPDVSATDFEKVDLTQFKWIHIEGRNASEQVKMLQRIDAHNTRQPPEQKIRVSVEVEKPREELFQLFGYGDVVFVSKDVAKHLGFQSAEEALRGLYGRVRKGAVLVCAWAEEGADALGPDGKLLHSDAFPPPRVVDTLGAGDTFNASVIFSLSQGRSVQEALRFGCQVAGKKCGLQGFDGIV

Ketohexokinase [2] = biological target: T1, Ketohexokinase; experiment: Inhibition of human ketohexokinase isoform C expressed in Escherichia coli BL21 (DE3) cells using D-fructose as substrate after 12 to 15 mins by fluorescence polarization assay
[3] = biological target: Calcium/calmodulin-dependent protein kinase type II subunit alpha (Homo sapiens, UniProt Q9UQM7); experiment: Inhibition of CAMK2A
Chain of Calcium/calmodulin-dependent protein kinase type II subunit alpha (Q9UQM7 whole entry): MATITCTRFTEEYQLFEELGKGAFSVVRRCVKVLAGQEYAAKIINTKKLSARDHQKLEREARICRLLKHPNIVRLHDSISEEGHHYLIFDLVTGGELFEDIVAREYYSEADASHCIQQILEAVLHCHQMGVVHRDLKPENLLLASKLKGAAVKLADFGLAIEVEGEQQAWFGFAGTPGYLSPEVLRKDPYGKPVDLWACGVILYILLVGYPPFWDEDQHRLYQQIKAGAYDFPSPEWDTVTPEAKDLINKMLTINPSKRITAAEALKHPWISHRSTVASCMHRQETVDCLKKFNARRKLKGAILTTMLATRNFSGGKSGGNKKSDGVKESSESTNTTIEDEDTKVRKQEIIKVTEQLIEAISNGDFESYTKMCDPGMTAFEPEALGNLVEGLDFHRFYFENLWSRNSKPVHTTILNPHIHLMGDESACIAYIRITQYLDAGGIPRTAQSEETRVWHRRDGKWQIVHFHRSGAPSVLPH

[4] = biological target: Death-associated protein kinase 3 (Homo sapiens, UniProt O43293); experiment: Inhibition of DAPK3
[5] = Metabolic stability of the compound in human liver microsomes assessed as compound remaining after 10 mins; format: ADME, Microsome; conditions: read-out: Stability
[6] = biological target: Tyrosine-protein kinase JAK2 (Homo sapiens, UniProt O60674); experiment: Inhibition of JAK2
Ephrin type-B receptor 1 = Ephrin type-B receptor 1 (Homo sapiens, UniProt P54762); experiment: Inhibition of EPHB1
[7] = biological target: Serine/threonine-protein kinase PAK 3 (Homo sapiens, UniProt O75914); experiment: Inhibition of PAK3
Chain of Serine/threonine-protein kinase PAK 3 (O75914 whole entry): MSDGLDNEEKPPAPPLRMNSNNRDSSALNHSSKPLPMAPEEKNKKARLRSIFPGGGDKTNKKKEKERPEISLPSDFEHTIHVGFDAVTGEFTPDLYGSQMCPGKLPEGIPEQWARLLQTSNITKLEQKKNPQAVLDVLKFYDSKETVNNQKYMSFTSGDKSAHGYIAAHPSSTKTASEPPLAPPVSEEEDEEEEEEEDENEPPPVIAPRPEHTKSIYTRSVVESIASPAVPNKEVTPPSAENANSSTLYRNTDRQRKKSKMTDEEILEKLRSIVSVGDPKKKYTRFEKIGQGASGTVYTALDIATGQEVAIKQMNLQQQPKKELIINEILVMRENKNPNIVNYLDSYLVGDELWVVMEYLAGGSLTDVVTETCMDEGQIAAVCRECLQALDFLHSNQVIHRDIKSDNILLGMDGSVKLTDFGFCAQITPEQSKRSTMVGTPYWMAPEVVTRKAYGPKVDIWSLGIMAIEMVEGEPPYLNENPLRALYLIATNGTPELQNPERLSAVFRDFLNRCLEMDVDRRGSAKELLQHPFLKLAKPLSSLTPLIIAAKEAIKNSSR

[8] = biological target: 5'-AMP-activated protein kinase subunit gamma-1 (Homo sapiens, UniProt P54619); experiment: Inhibition of AMPKG1
Cytochrome P450 1A2 = Cytochrome P450 1A2 (Homo sapiens, UniProt P05177); experiment: Inhibition of CYP1A2 in human liver microsomes; format: ADME, Microsome
Chain of Cytochrome P450 1A2 (P05177 whole entry): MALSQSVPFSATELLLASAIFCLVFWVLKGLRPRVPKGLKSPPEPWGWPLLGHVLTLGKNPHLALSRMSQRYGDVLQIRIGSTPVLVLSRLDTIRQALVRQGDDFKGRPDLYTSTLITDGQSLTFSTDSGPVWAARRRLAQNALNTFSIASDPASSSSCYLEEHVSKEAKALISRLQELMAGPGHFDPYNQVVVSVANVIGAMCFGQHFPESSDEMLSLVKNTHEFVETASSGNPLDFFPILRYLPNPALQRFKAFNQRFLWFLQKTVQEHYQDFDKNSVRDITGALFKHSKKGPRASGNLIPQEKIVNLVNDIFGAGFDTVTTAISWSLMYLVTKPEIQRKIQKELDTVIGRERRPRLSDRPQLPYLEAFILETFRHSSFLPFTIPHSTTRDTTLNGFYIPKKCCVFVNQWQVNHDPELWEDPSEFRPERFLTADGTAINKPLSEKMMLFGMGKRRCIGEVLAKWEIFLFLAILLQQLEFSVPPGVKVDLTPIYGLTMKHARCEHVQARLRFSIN

[9] = Solubility of the compound in 10% aqueous Solutol; format: physicochemical
[10] = biological target: Tyrosine-protein kinase ABL1 (Homo sapiens, UniProt P00519); experiment: Inhibition of ABL1
[11] = Permeability from basolateral to apical side in human Caco2 cells; format: ADME, cell-based; conditions: Caco-2, read-out: permeability
Cytochrome P450 2C9 = Cytochrome P450 2C9 (Homo sapiens, UniProt P11712); experiment: Inhibition of CYP2C9 in human liver microsomes; format: ADME, Microsome
Activin receptor type-1B = Activin receptor type-1B (Homo sapiens, UniProt P36896); experiment: Inhibition of ALK4
Chain of Activin receptor type-1B (P36896 whole entry): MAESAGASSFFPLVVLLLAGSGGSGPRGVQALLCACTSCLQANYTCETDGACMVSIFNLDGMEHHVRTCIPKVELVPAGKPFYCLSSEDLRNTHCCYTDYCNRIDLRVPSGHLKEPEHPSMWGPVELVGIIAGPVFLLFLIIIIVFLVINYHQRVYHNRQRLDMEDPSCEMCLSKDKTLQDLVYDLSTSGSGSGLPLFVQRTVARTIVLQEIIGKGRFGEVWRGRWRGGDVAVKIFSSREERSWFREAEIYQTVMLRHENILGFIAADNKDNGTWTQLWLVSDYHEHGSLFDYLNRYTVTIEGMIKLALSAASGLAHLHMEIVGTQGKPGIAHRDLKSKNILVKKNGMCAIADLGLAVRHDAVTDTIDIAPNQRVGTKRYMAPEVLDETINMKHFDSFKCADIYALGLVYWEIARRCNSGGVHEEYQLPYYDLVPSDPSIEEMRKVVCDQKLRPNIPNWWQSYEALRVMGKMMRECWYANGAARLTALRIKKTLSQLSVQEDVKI

Cytochrome P450 2C19 = Cytochrome P450 2C19 (Homo sapiens, UniProt P33261); experiment: Inhibition of CYP2C19 in human liver microsomes; format: ADME, Microsome
[12] = biological target: Protein kinase C theta type (Homo sapiens, UniProt Q04759); experiment: Inhibition of PKCtheta
[13] = Metabolic stability of the compound in rat liver microsomes assessed as compound remaining after 10 mins; format: ADME, Microsome; conditions: read-out: Stability
[14] = biological target: Interleukin-1 receptor-associated kinase 4 (Homo sapiens, UniProt Q9NWZ3); experiment: Inhibition of IRAK4
[15] = biological target: Calcium/calmodulin-dependent protein kinase type 1D (Homo sapiens, UniProt Q8IU85); experiment: Inhibition of CAMK1D
[16] = biological target: Serine/threonine-protein kinase Nek2 (Homo sapiens, UniProt P51955); experiment: Inhibition of NEK2
Cytochrome P450 3A4 = Cytochrome P450 3A4 (Homo sapiens, UniProt P08684); experiment: Inhibition of CYP3A4 in human liver microsomes; format: ADME, Microsome
[17] = biological target: Serine/threonine-protein kinase PLK3 (Homo sapiens, UniProt Q9H4B4); experiment: Inhibition of PLK3
[18] = Permeability from apical to basolateral side in human Caco2 cells; format: ADME, cell-based; conditions: Caco-2, read-out: permeability
[19] = biological target: Glycogen synthase kinase-3 beta (Homo sapiens, UniProt P49841); experiment: Inhibition of GSK3beta
[20] = biological target: Serine/threonine-protein kinase 26 (Homo sapiens, UniProt Q9P289); experiment: Inhibition of MST4
[21] = biological target: Serine/threonine-protein kinase pim-2 (Homo sapiens, UniProt Q9P1W9); experiment: Inhibition of PIM2
[22] = biological target: cAMP-dependent protein kinase catalytic subunit alpha (Homo sapiens, UniProt P17612); experiment: Inhibition of PRKACA
[23] = Clearance in Sprague-Dawley rat at 2 mg/kg, iv; format: ADME, organism-based; set-up: dose 2 mg/kg, route intravenous; conditions: in vivo
[24] = biological target: Cyclin-dependent kinase 1/cyclin B1 (Homo sapiens, UniProt P06493); experiment: Inhibition of CDK1/cyclin B; format: protein-complex assay
[25] = biological target: Ribosomal protein S6 kinase alpha-3 (Homo sapiens, UniProt P51812); experiment: Inhibition of RPS6KA3
[26] = Half life in Sprague-Dawley rat at 2 mg/kg, iv; format: ADME, organism-based; set-up: dose 2 mg/kg, route intravenous; conditions: in vivo
[27] = Initial plasma concentration in Sprague-Dawley rat at 2 mg/kg, iv; format: ADME, organism-based; set-up: dose 2 mg/kg, route intravenous
[28] = biological target: Rho-associated protein kinase 1 (Homo sapiens, UniProt Q13464); experiment: Inhibition of ROCK1
Chain of Rho-associated protein kinase 1 (Q13464 whole entry): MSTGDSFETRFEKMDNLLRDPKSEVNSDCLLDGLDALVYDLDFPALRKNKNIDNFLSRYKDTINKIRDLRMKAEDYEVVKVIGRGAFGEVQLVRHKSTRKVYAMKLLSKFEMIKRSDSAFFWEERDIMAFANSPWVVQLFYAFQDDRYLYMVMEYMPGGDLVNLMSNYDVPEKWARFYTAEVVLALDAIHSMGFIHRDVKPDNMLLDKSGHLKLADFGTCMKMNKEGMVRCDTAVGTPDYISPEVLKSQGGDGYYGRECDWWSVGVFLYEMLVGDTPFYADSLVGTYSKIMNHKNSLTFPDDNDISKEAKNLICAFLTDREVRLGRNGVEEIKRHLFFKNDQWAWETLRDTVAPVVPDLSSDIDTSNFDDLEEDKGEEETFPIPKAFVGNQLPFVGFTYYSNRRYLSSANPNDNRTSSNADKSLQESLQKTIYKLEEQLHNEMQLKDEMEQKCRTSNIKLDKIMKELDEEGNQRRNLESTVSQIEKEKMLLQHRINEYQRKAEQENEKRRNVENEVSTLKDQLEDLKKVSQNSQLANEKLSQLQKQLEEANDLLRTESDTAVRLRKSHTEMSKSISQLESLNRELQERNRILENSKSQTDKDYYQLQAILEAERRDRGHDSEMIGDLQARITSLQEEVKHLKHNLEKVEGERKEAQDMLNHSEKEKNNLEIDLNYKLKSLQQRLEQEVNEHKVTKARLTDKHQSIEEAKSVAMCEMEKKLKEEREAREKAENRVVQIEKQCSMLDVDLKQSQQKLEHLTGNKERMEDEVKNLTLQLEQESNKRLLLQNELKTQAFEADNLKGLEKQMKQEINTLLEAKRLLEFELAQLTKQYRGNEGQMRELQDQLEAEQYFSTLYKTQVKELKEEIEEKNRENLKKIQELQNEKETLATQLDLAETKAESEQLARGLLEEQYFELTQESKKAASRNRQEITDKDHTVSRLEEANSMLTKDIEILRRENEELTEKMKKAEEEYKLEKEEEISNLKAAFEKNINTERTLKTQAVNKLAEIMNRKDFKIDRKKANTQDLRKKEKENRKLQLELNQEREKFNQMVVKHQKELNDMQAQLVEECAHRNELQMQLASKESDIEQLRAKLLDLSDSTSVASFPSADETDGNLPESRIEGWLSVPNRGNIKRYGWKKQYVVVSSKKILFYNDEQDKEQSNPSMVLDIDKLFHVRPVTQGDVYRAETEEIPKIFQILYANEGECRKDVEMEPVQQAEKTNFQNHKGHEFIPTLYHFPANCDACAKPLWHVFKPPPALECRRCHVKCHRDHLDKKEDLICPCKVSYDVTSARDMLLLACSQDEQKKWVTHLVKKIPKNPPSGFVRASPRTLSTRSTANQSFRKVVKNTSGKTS

[29] = biological target: 5'-AMP-activated protein kinase catalytic subunit alpha-1 (Homo sapiens, UniProt Q13131); experiment: Inhibition of AMPKA1
[30] = biological target: 5'-AMP-activated protein kinase subunit beta-1 (Homo sapiens, UniProt Q9Y478); experiment: Inhibition of AMPKB1
[31] = biological target: Mitogen-activated protein kinase 13 (Homo sapiens, UniProt O15264); experiment: Inhibition of p38delta
Chain of Mitogen-activated protein kinase 13 (O15264 whole entry): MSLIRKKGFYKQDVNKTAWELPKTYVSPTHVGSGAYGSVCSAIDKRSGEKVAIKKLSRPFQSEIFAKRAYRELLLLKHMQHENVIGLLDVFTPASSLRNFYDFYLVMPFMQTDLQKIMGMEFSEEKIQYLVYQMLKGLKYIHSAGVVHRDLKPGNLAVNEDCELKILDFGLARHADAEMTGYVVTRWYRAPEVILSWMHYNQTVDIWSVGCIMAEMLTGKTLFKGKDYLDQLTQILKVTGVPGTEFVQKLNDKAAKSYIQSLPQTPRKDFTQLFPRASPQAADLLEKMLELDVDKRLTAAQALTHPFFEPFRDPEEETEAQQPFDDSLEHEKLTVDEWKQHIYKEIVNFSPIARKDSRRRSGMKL

[32] = Volume of distribution at steady state in Sprague-Dawley rat at 2 mg/kg, iv; format: ADME, organism-based; set-up: dose 2 mg/kg, route intravenous; conditions: in vivo, read-out: Vdss
[33] = Half life in Sprague-Dawley rat at 10 mg/kg, po; format: ADME, organism-based; set-up: dose 10 mg/kg, route oral; conditions: in vivo
[34] = Oral bioavailability in Sprague-Dawley rat at 10 mg/kg; format: ADME, organism-based; conditions: in vivo
[35] = biological target: Serine/threonine-protein kinase Chk1 (Homo sapiens, UniProt O14757); experiment: Inhibition of CHK1
[36] = biological target: RAC-alpha serine/threonine-protein kinase (Homo sapiens, UniProt P31749); experiment: Inhibition of AKT1
[37] = biological target: High affinity nerve growth factor receptor (Homo sapiens, UniProt P04629); experiment: Inhibition of NTRK1
Chain of High affinity nerve growth factor receptor (P04629 whole entry): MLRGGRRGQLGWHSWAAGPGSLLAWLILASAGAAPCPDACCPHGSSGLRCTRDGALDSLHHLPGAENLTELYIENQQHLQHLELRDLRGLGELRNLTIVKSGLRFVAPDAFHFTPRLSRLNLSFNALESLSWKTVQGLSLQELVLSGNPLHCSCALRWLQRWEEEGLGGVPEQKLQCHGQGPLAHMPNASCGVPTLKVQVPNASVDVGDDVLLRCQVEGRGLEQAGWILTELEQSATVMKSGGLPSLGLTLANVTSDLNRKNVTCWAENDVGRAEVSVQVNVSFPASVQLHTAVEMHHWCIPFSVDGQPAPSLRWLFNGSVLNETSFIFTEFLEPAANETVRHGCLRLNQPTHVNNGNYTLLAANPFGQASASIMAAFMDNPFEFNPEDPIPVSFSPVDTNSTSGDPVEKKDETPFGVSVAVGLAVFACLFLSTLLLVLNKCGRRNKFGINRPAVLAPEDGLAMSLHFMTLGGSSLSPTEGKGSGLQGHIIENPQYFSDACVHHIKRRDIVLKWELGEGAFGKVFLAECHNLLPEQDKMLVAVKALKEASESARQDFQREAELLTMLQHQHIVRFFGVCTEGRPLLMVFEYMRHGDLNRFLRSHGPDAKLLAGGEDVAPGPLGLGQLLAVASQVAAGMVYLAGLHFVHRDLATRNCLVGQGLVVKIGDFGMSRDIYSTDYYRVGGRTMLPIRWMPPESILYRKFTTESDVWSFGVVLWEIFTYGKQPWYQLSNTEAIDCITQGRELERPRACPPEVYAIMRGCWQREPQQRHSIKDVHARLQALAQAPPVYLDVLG

Cytochrome P450 2D6 = Cytochrome P450 2D6 (Homo sapiens, UniProt P10635); experiment: Inhibition of CYP2D6 in human liver microsomes; format: ADME, Microsome
[38] = biological target: Serine/threonine-protein kinase Chk2 (Homo sapiens, UniProt O96017); experiment: Inhibition of CHK2
[39] = Cmax in Sprague-Dawley rat at 10 mg/kg, po; format: ADME, organism-based; set-up: dose 10 mg/kg, route oral; conditions: in vivo
Aurora kinase A = Aurora kinase A (Homo sapiens, UniProt O14965); experiment: Inhibition of Aurora A
Chain of Aurora kinase A (O14965 whole entry): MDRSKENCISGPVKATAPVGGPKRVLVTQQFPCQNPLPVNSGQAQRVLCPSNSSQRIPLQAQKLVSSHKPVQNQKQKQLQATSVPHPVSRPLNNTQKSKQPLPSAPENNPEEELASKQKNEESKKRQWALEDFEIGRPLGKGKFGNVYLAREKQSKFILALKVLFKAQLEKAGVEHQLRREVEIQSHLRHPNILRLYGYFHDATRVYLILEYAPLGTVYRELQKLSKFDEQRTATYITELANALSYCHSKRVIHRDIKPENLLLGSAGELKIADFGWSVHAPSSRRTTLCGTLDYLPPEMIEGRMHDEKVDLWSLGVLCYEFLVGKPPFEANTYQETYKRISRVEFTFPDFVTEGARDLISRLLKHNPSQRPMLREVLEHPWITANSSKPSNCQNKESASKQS

[40] = biological target: Proto-oncogene tyrosine-protein kinase Src (Homo sapiens, UniProt P12931); experiment: Inhibition of SRC

IC50 (Ketohexokinase [1]): 270 nM
IC50 (Ketohexokinase [2]): 9.8 nM
Structure (SMILES): CSc1ccccc1Nc1nc(N2CCNCC2)nc2c(NCc3ccccn3)ncnc12

IC50 (Ketohexokinase [2]): 380 nM
Structure (SMILES): c1ccc(C2CC2)c(Nc2nc(N3CCNCC3)nc3c(NCC4CC4)ncnc23)c1

IC50 (Ketohexokinase [2]): 540 nM
Structure (SMILES): Clc1ccccc1Nc1nc(N2CCNCC2)nc2c(NCC3CC3)ncnc12

IC50 (Ketohexokinase [2]): 2800 nM
Structure (SMILES): Cc1cccc(Nc2nc(N3CCNCC3)nc3c(NCC4CC4)ncnc23)c1

IC50 (Ketohexokinase [2]): 300 nM
Structure (SMILES): C#CCNc1ncnc2c(Nc3ccccc3C)nc(N3CCNCC3)nc12

IC50 (Ketohexokinase [2]): 400 nM
Structure (SMILES): CCCNc1ncnc2c(Nc3ccccc3C)nc(N3CCNCC3)nc12

IC50 (Ketohexokinase [2]): > 9000 nM
Structure (SMILES): c1nc(NCC2CC2)c2nc(N3CCNCC3)nc(NC3CCCCC3)c2n1

IC50 (Ketohexokinase [2]): 710 nM
Structure (SMILES): Cc1ccccc1Nc1nc(NC2CCNCC2)nc2c(NCC3CC3)ncnc12

IC50 (Ketohexokinase [2]): 200 nM
Structure (SMILES): CCOc1ccccc1Nc1nc(N2CCNCC2)nc2c(NCC3CC3)ncnc12

IC50 (Ketohexokinase [2]): > 9000 nM
Structure (SMILES): CS(=O)(=O)c1ccccc1Nc1nc(N2CCNCC2)nc2c(NCC3CC3)ncnc12

IC50 [3]: > 40 µM
remaining at 10 min [5]: 88%
IC50 [6]: > 40 µM
IC50 (Ephrin type-B receptor 1): > 40 µM
IC50 [7]: > 40 µM
IC50 [8]: > 40 µM
inhibition (INH) (Cytochrome P450 1A2): Not Active
solubility [9]: 1500 µg/mL (≈ 3.55 mM)
IC50 [10]: > 40 µM
Papp B→A [11]: 1 ×10⁻⁶ cm/s
inhibition (INH) (Cytochrome P450 2C9): Not Active
IC50 (Activin receptor type-1B): > 40 µM
inhibition (INH) (Cytochrome P450 2C19): Not Active
IC50 [12]: > 40 µM
remaining at 10 min [13]: 72%
IC50 [14]: > 40 µM
IC50 [15]: > 40 µM
IC50 [16]: > 40 µM
inhibition (INH) (Cytochrome P450 3A4): Not Active
IC50 [17]: > 40 µM
Papp A→B [18]: 0.3 ×10⁻⁶ cm/s
IC50 [19]: > 40 µM
IC50 [20]: > 40 µM
IC50 [21]: > 40 µM
IC50 (Ketohexokinase [1]): 400 nM
IC50 [22]: > 40 µM
clearance [23]: 160 mL/min/kg
IC50 [24]: > 40 µM
IC50 [25]: > 40 µM
half-life [26]: 120 min
C0 [27]: 600 nM
IC50 [28]: > 40 µM
IC50 [29]: > 40 µM
IC50 [30]: > 40 µM
IC50 [31]: > 40 µM
Vd [32]: 32 L/kg
half-life [33]: 240 min
bioavailability [34]: 34%
IC50 [35]: > 40 µM
IC50 [36]: > 40 µM
IC50 [37]: > 40 µM
inhibition (INH) (Cytochrome P450 2D6): Not Active
IC50 [38]: > 40 µM
Cmax [39]: 160 nM
IC50 (Aurora kinase A): > 40 µM
IC50 [40]: > 40 µM
Structure (SMILES): CSc1ccccc1Nc1nc(N2CCNCC2)nc2c(NCC3CC3)ncnc12
IC50 [4]: > 40 µM

IC50 (Ketohexokinase [2]): > 9000 nM
Structure (SMILES): c1nc(NCC2CC2)c2nc(N3CCNCC3)nc(NC3CC3)c2n1

IC50 (Ketohexokinase [2]): 170 nM
Structure (SMILES): Brc1ccccc1Nc1nc(N2CCNCC2)nc2c(NCC3CC3)ncnc12

IC50 (Ketohexokinase [1]): 2400 nM
Structure (SMILES): Cc1ccccc1Nc1nc(N2CCNCC2)nc2c(NCC3CC3)ncnc12

IC50 (Ketohexokinase [2]): 2000 nM
Structure (SMILES): CSc1cccc(Nc2nc(N3CCNCC3)nc3c(NCC4CC4)ncnc23)c1

IC50 (Ketohexokinase [2]): 30 nM
Structure (SMILES): CSc1ccccc1Nc1nc(N2CCNCC2)nc2c(NCc3cccs3)ncnc12

IC50 (Ketohexokinase [2]): 3000 nM
Structure (SMILES): FC(F)(F)Sc1ccccc1Nc1nc(N2CCNCC2)nc2c(NCC3CC3)ncnc12

IC50 (Ketohexokinase [2]): 140 nM
Structure (SMILES): CSc1ccccc1Nc1nc(N2CCC(CN(C)C)CC2)nc2c(NCC3CC3)ncnc12

IC50 (Ketohexokinase [2]): 400 nM
Structure (SMILES): Cc1ccccc1Nc1nc(N2CCNCC2)nc2c(NCc3ccccc3)ncnc12

IC50 (Ketohexokinase [2]): 1600 nM
Structure (SMILES): CCCCCCNc1ncnc2c(Nc3ccccc3C)nc(N3CCNCC3)nc12

IC50 (Ketohexokinase [2]): 300 nM
Structure (SMILES): Cc1ccccc1Nc1nc(N2CCCNCC2)nc2c(NCC3CC3)ncnc12

IC50 (Ketohexokinase [2]): 50 nM
Structure (SMILES): CSc1ccccc1Nc1nc(N2CCNCC2)nc2c(NCCC3CC3)ncnc12

IC50 (Ketohexokinase [1]): 270 nM
IC50 (Ketohexokinase [2]): 16 nM
Structure (SMILES): CSc1ccccc1Nc1nc(N2CCNCC2)nc2c(NCc3nccs3)ncnc12

IC50 (Ketohexokinase [1]): 360 nM
Structure (SMILES): CSc1ccccc1Nc1nc(N2CC3(CNC3)C2)nc2c(NCC3CC3)ncnc12
